Entries after “also recorded” stand apart in the source; their conditions may differ. Where two headings read alike, the source gives them in different places.

The text below walks through data of patent US4745109A, “Suicide inhibitors of aromatase” (Washington Research Foundation, priority 1984, dated 1988).

The conditions of series [1]: in vivo; cited from earlier work.
Series [2] deals with T1, aromatase (Homo sapiens, UniProt P11511).
T1 construct: Placental microsomes were prepared as previously described; from tissue; host or cells: human placenta, microsomes
T1 sequence (P11511 1-503): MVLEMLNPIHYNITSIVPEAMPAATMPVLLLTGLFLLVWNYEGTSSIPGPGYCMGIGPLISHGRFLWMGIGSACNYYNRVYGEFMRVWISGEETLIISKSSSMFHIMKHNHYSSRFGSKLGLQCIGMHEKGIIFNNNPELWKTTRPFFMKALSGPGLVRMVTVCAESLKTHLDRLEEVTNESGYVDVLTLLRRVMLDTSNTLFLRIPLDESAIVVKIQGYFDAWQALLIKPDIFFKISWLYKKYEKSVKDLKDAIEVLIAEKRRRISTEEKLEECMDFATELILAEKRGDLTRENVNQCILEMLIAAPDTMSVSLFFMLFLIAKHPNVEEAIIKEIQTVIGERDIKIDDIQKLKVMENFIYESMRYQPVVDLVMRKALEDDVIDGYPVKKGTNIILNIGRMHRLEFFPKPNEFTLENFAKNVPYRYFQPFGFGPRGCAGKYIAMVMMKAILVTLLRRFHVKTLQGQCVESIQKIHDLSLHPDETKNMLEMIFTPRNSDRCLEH
In words: NADPH and Oxygen Dependency Experiments: aromatase inactivation in placental microsomes, tritium release assay. The conditions noted are these: 500 nM inhibitor, preincubation 3 minutes at 30° C., not corrected for background loss (approximately 5%). It is filed as biochemical. As to the method: (§1) The activity of 17β-hydroxy-10β-mercaptoestr-4-en-3-one and 19-mercaptoandrost-4-en-3,17-dione were tested as suicide inhibitors of aromatase according to the method of Coury et al. (J. Biol. Chem., 256, 1076 (1981)) in human placental microsomes. The activity was measured by the well-established tritium release assay according to Thompson et al. (J. Biol. Chem., 249, 5364 (1974)) using 1β,2β-[^3 H]androstenedione (40-60 Ci/mole) obtained from New England Nuclear in Boston, MA.
(§2) Human placenta were obtained from the University Hospital, University of Washington, Seattle, WA, and were used within a few hours of delivery. Placental microsomes were prepared as previously described. (Coury et al). Protein concentration was determined by the method of Lowry (J. Biol. Chem., 193, 265 (1951)).
(§3) All incubations were carried out in 10 mM phosphate buffer, pH 7.5, 100 mM KCl, 1/mM EDTA. Incubations contained 1.0 mg/ml microsomal protein, 32 mg/ml propylene glycol, 0.36 mM NADPH, 11.5 mM glucose-6-phosphate dehydrogenase and 10 mM MgCl2 and were allowed to warm to 30° C. for 5 minutes. Inhibitors were added as 10 μl/ml from 10 μM stock solutions in ethanol to give final inhibitor concentrations of 100 nM. At various times, from 0 to 70 minutes, 400 μl aliquots in duplicate were removed and were added to […] of a 10 mM phosphate buffer, pH 7.5, 100 mM KCl, 1 mM EDTA containing 40 μM 1β,2β,[^3 H]androstenedione (20 Ci/mol). Tritium release incubations were conducted at 37° C. for 10 minutes and stopped by addition of 5 ml 20% acetone/chloroform. Following vortexing at high speeds for 30 seconds and centrifugation, 100 μl of the water layer was removed and mixed with 5 ml LSC cocktail and counted. Percent activity remaining is the number of DPMs after a time period divided by the number of DPMs at time zero multiplied by 100.
Incubations containing 1.0 mg/ml microsomal protein, 32 mg/ml propylene glycol, with or without 0.36 mM NADPH, were warmed to 30° C. for 5 minutes. Inhibitors were added in ethanol (10 μl/ml of incubate) to give inhibitor concentrations of 500 nM. Controls contained only ethanol and NADPH. After incubating 0 and 3 minutes at 30° C., 400 μl aliquots, in duplicate, from the NADPH containing incubations were added to the tritium release assay. For incubations lacking NADPH, 400 μl aliquots were removed and added to 100 μl phosphate buffer containing 1.4 mM NADPH and […] 1β,2β[^3 H]androstenedione (20 Ci/mol). Tritium release assays were conducted as described above.
Incubations containing 1.0 mg/ml microsomal protein, 32 mg/ml propylene glycol, and 500 nM inhibitor or ethanol (10 μl/ml) were prepared. Incubations run under anaerobic conditions were alternately evacuated and purged with deoxygenated nitrogen ten times at 0° C. Both anaerobic and aerobic incubations were allowed to warm to 30° C. for 5 minutes, and 10 μl/ml of a 1.4 mM NADPH solution was added via a syringe. After incubating 0 and 3 minutes at 30° C., triplicate aliquots of 400 μl were removed and added to tritium release assays.

The target of series [3] is T1, aromatase. In words: Androstenedione and Cysteine Protection Experiments (t1/2 of aromatase inactivation), tritium release assay. It counts as biochemical. The settings on record: 1 at 500 nM, 2 at 167 nM, 30° C., NADPH, not corrected for background loss; for t1/2 (mean ± SD), time to bring about a 50% inhibition of aromatase: inhibitor alone; for t1/2 (mean ± SD), inhibitor and androstenedione: with androstenedione 5.0 μM; for t1/2 (mean ± SD), inhibitor and cysteine: with cysteine 1.0 mM. The procedure: as §1, §2, §3
Incubations containing 1.0 mg/ml microsomal protein, 32 mg/ml propylene glycol, and 0.36 mM NADPH were warmed to 30° C. for 5 minutes. Addition of ethanol solutions (10 μl/ml) of inhibitors with and without androstenedione gave final concentrations of 500 nM 17β-hydroxy-10β-mercaptoestr-4-en-3-one, 167 nM 19-mercaptoandrost-4-en-3,17-dione, with and without 5.0 μM androstenedione. After 0, 1, 2, and 3 minutes at 30° C., 400 μl aliquots, in duplicate, were removed and added to the tritium release assay.
Incubations containing 1.0 mg/ml microsomal protein, 32 mg/ml propylene glycol, and 0.36 mM NADPH, with or without 1.0 mM cysteine, were warmed to 30° C. for 5 minutes. Addition of inhibitor solution (10 μl/ml) gave final concentrations of 500 nM 17β-hydroxy-10β-mercapto-4-en-3-one and 167 nM 19-mercaptoandrost-4-en-3,17-dione. After incubating 0, 1, 2, and 3 minutes, 400 μl aliquots, in duplicate, were removed and added to tritium release assays.

Series [4] deals with T1, aromatase. Nature of the series: Irreversibility Experiments (diffusion dialysis), tritium release assay. The settings on record: 250 nM inhibitor, preincubation 5 minutes at 30° C. It is filed as biochemical. The procedure:
as §1, §2
Incubations containing 1.8 mg/ml microsomal protein, 32 mg/ml propylene glycol, 0.7 mM NADPH, and 250 nM of inhibitor were kept at 4° C. For zero time points, 400 μl aliquots, in triplicate, were removed and added to tritium release assays. Remaining microsomes were incubated at 30° C. for 5 minutes, cooled in ice to 4° C.; and 400 μl aliquots, in triplicate, were added to tritium release assays to determine remaining activity. Remaining microsomes were added to dialysis tubing (Spectrapore® membrane tubing, 3500 dalton cut off) and dialyzed against a 10 mM phosphate buffer, pH 7.5, 100 mM KCl, 1 mM EDTA, and 5% propylene glycol at 0° C. for 20 hours. To serve as controls, incubations containing the same concentrations of inhibitor, but no cofactors, were carried through the same procedures.
After dialysis, 400 μl aliquots, in duplicate, were added to 100 μl phosphate buffer containing 2.9 mM NADPH and 40 μM 1β,2β[^3 H]androstenedione (20 Ci/mol) and incubated at 37° C. for 10 minutes. The usual workup for the tritium release assay was followed. Protein content for all incubations fell approximately 25% after dialysis. Enzyme activity fell approximately 60% after dialysis.

In series [5] the target is T1, aromatase. Nature of the series: Concentration-Dependent Inactivation (rate constant of inactivation). It is filed as biochemical. The settings on record: relative to 19-mercaptoandrost-4-en-3,17-dione. As to the method: as §1, §2
Incubations containing 1.0 mg/ml microsomal protein, 32 mg/ml propylene glycol, and 0.36 mM NADPH were warmed to 30° C. for 5 minutes. Various concentrations of inhibitor were added to the incubations in ethanol (10 μl/ml of incubate). Ethanol (10 μl/ml was) added as a control. After incubating 0, 1, 2, and 3 minutes at 30° C., 400 μl aliquots, in duplicate, were removed and were added to the tritium release assay described above.

The mark [6] stands for this setting: N2 atmosphere (anaerobic), read-out: % Activity Remaining (mean ± SD), + N2 atmosphere.
[7] abbreviates: with NADPH, aerobic, read-out: % Activity Remaining (mean ± SD).
The mark [8] stands for this setting: without NADPH, read-out: % Activity Remaining (mean ± SD), - NADPH.
The mark [9] stands for this setting: after dialysis 20 hours at 0° C., read-out: Activity Remaining (mean ± SD), After Dialysis.
The mark [10] stands for this setting: 5 min, before dialysis, read-out: Activity Remaining (mean ± SD), Before Dialysis.

With `CCC1(c2ccc(N)cc2)CCC(=O)NC1=O` (stereo not drawn) [aminoglutethimide], the side effects entry in series [1] is on record as “lethargy or tumor lysis syndrome; also recorded: sedative which has the side effect of lethargy”.

In the case of `C[C@]12CC[C@H]3[C@@H](CCC4=CC(=O)CC[C@@]43CS)[C@@H]1CCC2=O` [compound 2, 19-mercaptoandrost-4-en-3,17-dione], the remaining activity at 0.5 µM in series [2] (setting [6]) stood at 95 ± 5%; in series [2] (setting [7]), 77 ± 4%; in series [2] (setting [8]), 95 ± 5%. In series [3], the “t1/2 (mean ± SD), time to bring about a 50% inhibition of aromatase” value was found to be 7.7 ± 1.25 min. Besides, in series [3], the “t1/2 (mean ± SD), inhibitor and androstenedione” value was determined as 12.2 ± 0.35 min. Further, the “t1/2 (mean ± SD), inhibitor and cysteine” value in series [3] came to 6.87 ± 0.333 min. For the same compound, the remaining activity at 0.25 µM stood at 58 ± 2% in series [4] (setting [9]) and 50 ± 5% in series [4] (setting [10]).

Consider `C[C@]12CC[C@H]3[C@@H](CCC4=CC(=O)CC[C@@]43S)[C@@H]1CC[C@@H]2O` [compound 1, 17β-hydroxy-10β-mercaptoestr-4-en-3-one], for which the remaining activity at 0.5 µM in series [2] (setting [6]) came out at 95 ± 2%; in series [2] (setting [7]), 67 ± 2%; in series [2] (setting [8]), 96 ± 3%. The “t1/2 (mean ± SD), time to bring about a 50% inhibition of aromatase” value in series [3] was 4.68 ± 0.833 min. Besides, in series [3], the “t1/2 (mean ± SD), inhibitor and androstenedione” value came out at 12.6 ± 0.833 min. Also, the “t1/2 (mean ± SD), inhibitor and cysteine” value in series [3] came to 5.17 ± 0.967 min. Moreover, the remaining activity at 0.25 µM in series [4] (setting [9]) was 52 ± 3%; in series [4] (setting [10]) it was 49 ± 6%. In addition, the “rate constant ratio, 17β-hydroxy-10β-mercaptoestr-4-en-3-one vs 19-mercaptoandrost-4-en-3,17-dione” value in series [5] is on record as “about three”.
